Assay results taken from patent US20260256790A1, “DEBIO-0123 IN COMBINATION WITH TEMOZOLOMIDE AND RADIOTHERAPY FOR USE IN TREATING GLIOMA” (Debiopharm International S.A., priority 2023, published 2026).

Experiments:
[1] = tested on: U87-MG-luc GBM cell line; test: U87-MG-luc tumors implanted subcutaneously in mice, monotherapy; assay type: in vivo; settings: for Tumor volume vs vehicle controls at end of treatment: subcutaneous, 28 days
Experimental: (§1) Male athymic nude mice were injected A) subcutaneously (s.c.) or B) cerebrally (i.e.) with 1×10^5 U87-MG-luc cells in Matrigel. Animals implanted i.e. were imaged to monitor tumor establishment and growth throughout the study using an In Vivo Imaging System (IVIS) once weekly, detecting tumor bioluminescence (BLI) in photons. For animals implanted s.c., tumor growth was monitored twice weekly by caliper measurement and tumor volume calculated using the equation V=(L×W×W)/2, where V is tumor volume, L is tumor length (the longest tumor dimension) and W is tumor width (the longest tumor dimension perpendicular to L). Upon confirmation of tumor establishment, animals were randomly allocated into 3 (A, s.c.) or 2 (B, i.e.) treatment groups (n=8 animals per group) consisting of vehicle (0.5% methycellulose, 1% Tween 80 P.O. and saline I.V.) or Compound of formula (I) [CoF (I)] formulated as a suspension in 0.5% methycellulose and 1% Tween 80. The treatments were administered over a 28 day cycle and compound of formula (I) was administered orally at a dose of either 30 mg/kg (for both A and B) or 60 mg/kg (for A only), once daily (QD)). During routine monitoring, the animals were checked for any effects of tumor growth and treatments on behavior such as mobility, food and water consumption, body weight gain/loss 3 times a week, eye/hair matting and any other abnormalities. Mortality and observed clinical signs were recorded for individual animals in detail.

[2] = tested on: SNB-19 GBM cell line; test: Colony formation with radiotherapy, SNB-19; assay type: cell-based; settings: SNB19; 0.1 μM to 5.0 μM; irradiated at 1, 2 and 4 Gy; p<0.0001
Experimental: (§2) GBM tumor cells (T98G, LN18, SNB-19 and U251) were grown as an adherent monolayer at 37° C. in a humidified atmosphere (5% CO2, 95% air). For experimental use, tumor cells were detached from culture flasks by a 5-minute treatment with trypsin-versene, in Hanks' medium without calcium or magnesium and neutralized by addition of complete culture medium. Cells were counted and viability assessed using a 0.25% trypan blue exclusion assay. All cell lines were appropriately seeded following the conditions for monolayer colony formation in 6-well plates (Ref #152795, Nunc, Dutscher) in 1.9 ml of cell culture medium, at 3 densities for evaluation of a proclonogenic effect. […]
(§3) Treatments were performed at 24 hours (D1) after seeding by addition of ×20 concentrated compound or vehicle solutions, to obtain final concentrations of 0.1 μM to 5.0 μM of Compound of formula (I) [referred to as CoF (I) in FIG. 3]. […] After 14 days of incubation, colonies were counted after being stained through incubation with 500 μl of a solution of water containing 0.05% (w/v) of methylene blue (Ref. M4159, Sigma) for 2 hours. Colonies were counted using a colony counter pen (Ref #045855, Dutscher, Brumath, France). The Surviving Fraction was calculated for each condition using the equations described below and plotted on a semi-logarithmic graph using the Linear-Quadratic model. […]

[3] = tested on: T98G GBM cell line; test: Colony formation with radiotherapy, T98G; assay type: cell-based; settings: 0.1 μM to 5.0 μM, irradiated at 1, 2 and 4 Gy, p<0.0001
Experimental: as §2, §3

[4] = Free fraction in rat plasma (separate experiment, not shown); assay type: in vitro ADME
[5] = tested on: U251 GBM cell line; test: Colony formation with radiotherapy, U251; assay type: cell-based; settings: 0.1 μM to 5.0 μM, irradiated at 1, 2 and 4 Gy, p=0.6
Experimental: as §2, §3

[6] = Binding to plasma proteins; assay type: in vitro ADME; settings: human
Experimental: Thus, the unbound (or free fraction) of the Study Drug and the N^32-desmethyl-Study drug are calculated.

[7] = tested on: U87-MG-luc GBM cell line; test: U87-MG-luc tumors implanted cerebrally in mice, monotherapy; assay type: in vivo, athymic nude mice; settings: 30 mg/kg oral QD, 28 days, p=0.0023 on day 28
Experimental: as §1, with “During routine monitoring, the animals were checked for any effects of tumor growth and treatments on behavior such as mobility, food and water consumption, body weight gain/loss 3 times a week, eye/hair matting and any other abnormalities.” left out

Cc1cc(Nc2ncc3c(n2)N(C)CN(c2c(Cl)cccc2Cl)C3=O)ccc1C1CCN(C)CC1 [Compound of formula (I)]
Body weight loss / tolerability ([1]; all dose levels (30 or 60 mg/kg QD, 28 days), s.c. and cerebral models): No significant body weight loss | Tumor volume vs vehicle controls at end of treatment ([1]; 30 mg/kg oral QD, p=0.0009 on day 28): significantly smaller tumors than vehicle controls | Tumor volume vs vehicle controls at end of treatment ([1]; 60 mg/kg oral QD, p<0.0001 on day 28): significantly smaller tumors than vehicle controls | Effect on radiotherapy (surviving fraction, colony formation) [2]: significantly increased effect of radiotherapy | Effect on radiotherapy (surviving fraction, colony formation) [3]: significantly increased effect of radiotherapy | fraction unbound [4]: 0.078 | Effect on radiotherapy (surviving fraction, colony formation) [5]: not significant | fraction unbound [6]: 0.083 | Tumor size (relative BLI) vs vehicle controls at end of treatment [7]: significantly smaller tumors than vehicle controls
